We go through 52 molecules from US20250059141A1, “TLR MODULATOR AND USE THEREOF” (DUALITY BIOLOGICS (SUZHOU) CO., LTD., priority 2021, published 2025).

Molecules are shown by their SMILES. Like-named read-outs stand apart in the source and are kept apart here.

This test concerns IFN-α production in human PBMCs. As to the kind of experiment: Induction of IFN-α in human PBMCs (ELISA). It counts as cell-based. Conditions: PBMC, 24 h, read-out: PBMC assay IFNa EC50. How it is done:
In this example, the induction activity of the compounds of the present application on human PBMCs for TNF-α and IFN-α production was assessed in human PBMCs (human peripheral blood mononuclear cells). The human PBMCs were purchased from Shanghai Saily Biotechnology Co., Ltd. (Cat. No. XFB—HP100B). PBMC cells were treated with the compounds. The compounds of the present application are diluted in DMSO, for example, to about 15 mM. The reference compound was added to the plates in sequence after diluted to 5 mg/mL. The compounds were serially 3- or 4-fold diluted to 8 concentrations and added to plates in duplicate (Table 2-1 for serial 3-fold dilutions and Table 2-2 for serial 4-fold dilutions). For the negative control wells, DMSO was added at 0.4 μL/well, and a 5 mg/mL reference compound solution was added to the positive control wells at 0.4 μL/well. The final concentration of DMSO was 0.2%. Frozen human PBMCs in cryopreservation tubes were quickly thawed in a 37° C. water bath and transferred into 50-mL centrifuge tubes. Prewarmed RPMI1640 medium was gradually added and the mixture was well mixed and centrifuged for 15 min before the supernatant was discarded. The cells were resuspended in a culture medium and counted. The cell suspension was adjusted to 2.5×10^6 cells/mL with the culture medium. Diluted cells were added at 200 μL/500,000 cells/well in 96-well plates containing the compounds. The cell plates were incubated at 37° C./5% CO2 for 24 h.
The plate was washed 4 times, then the detection antibody was added. […] The plate was washed 4 additional times, then the enzyme was added. […] Termination of reaction: The reaction was terminated by quickly adding the stop solution at 100 μL/well. Plate reading: The reading at wavelength 450 nm was detected by an M2e instrument within 10 min after the termination.
Compound activity data analysis: The OD450 values were converted to TNF-α and IFN-α contents by GraphPad Prism software analysis and fitted to give dose-response curves of the compounds. The EC50 values for the compounds were calculated, where the Emax values are the maximal values for TNF-α and IFN-α.
(In general: An ELISA detects its analyte on a solid surface through an enzyme-linked reagent.)

The mark [1] stands for this setting: serial 4-fold dilutions, class symbols.

Broadly, the EC50 is the concentration giving half of the maximal effect. For `CCCN(OCc1ccc(N)cc1)C(=O)C1=Cc2ccc(-c3cncc(CO)c3)cc2N=C(N)C1` [Compound 15], the EC50 (serial 3-fold dilutions) was found to be 3.02 nM. For the molecule `CCCN(OCc1ccc(N)cc1)C(=O)C1=Cc2ccc(-c3cncc(C(=O)O)c3)cc2N=C(N)C1` [Compound 32], the EC50 under setting [1] is 50 to 500 nM. In the case of `CCCN(OCc1ccc(N)cc1)C(=O)C1=Cc2ccc(-c3cccc(S(N)(=O)=O)c3)cc2N=C(N)C1` [Compound 35], the 50% effective concentration (EC50) (serial 3-fold dilutions) was 2.95 nM. With `CCCN(OCc1ccc(N)cc1)C(=O)C1=Cc2ccc(-c3cncc(S(N)(=O)=O)c3)cc2N=C(N)C1` [Compound 36], the 50% effective concentration (EC50) (serial 3-fold dilutions) amounted to 6.05 nM. Turning to `CCCN(OCc1ccc(N)cc1)C(=O)C1=Cc2ccc(C(=O)N3CC(CO)C3)cc2N=C(N)C1` [Compound 37], under setting [1], the 50% effective concentration (EC50) was above 500 nM.

On to `CCCN(OCc1ccc(N)cc1)C(=O)C1=Cc2ccc(C(=O)Nc3cccnc3)cc2N=C(N)C1` [Compound 40], for which the EC50 (serial 3-fold dilutions) is 1320 nM.

As for `CCCN(OCc1ccc(N)cc1)C(=O)C1=Cc2ccc(-c3cccc(S(=O)(=O)N4CC(O)C4)c3)cc2N=C(N)C1` [Compound 41], the EC50 was 31.1 nM (serial 3-fold dilutions) and 50 to 500 nM under setting [1]. In the case of `CCCN(OCc1ccc(N)cc1)C(=O)C1=Cc2ccc(-c3ccc(C(=O)N4CC[C@@H](O)C4)cc3)cc2N=C(N)C1` [Compound 42], the EC50 is 48.3 nM (serial 3-fold dilutions) and above 500 nM under setting [1]. As for `CCCN(OCc1ccc(N)cc1)C(=O)C1=Cc2ccc(-c3ccc4c(c3)C(=O)OC4)cc2N=C(N)C1` [Compound 43], for the setting “serial 3-fold dilutions”, the EC50 was 29.6 nM. As to `NC1=Nc2cc(-c3cncc(CO)c3)ccc2C=C(C(=O)N(CC2CC2)OCc2ccc(N)cc2)C1` [Compound 45], the EC50 (serial 3-fold dilutions) was 7.25 nM.

Take `CCCN(OCc1ccc(N)cc1)C(=O)C1=Cc2ccc(C(=O)N3CCC(O)C3)cc2N=C(N)C1` (stereo not drawn) [Compound 46]: the EC50 under setting [1] was 50 to 500 nM.

Consider `CCCN(OCc1ccc(N)cc1)C(=O)C1=Cc2ccc(C(=O)N3CCOC(CO)C3)cc2N=C(N)C1` (stereo not drawn) [Compound 47], for which, under setting [1], the concentration giving a half-maximal response (EC50) was 50 to 500 nM. As for `CCCN(OCc1ccc(N)cc1)C(=O)C1=Cc2ccc(C(=O)NCCO)cc2N=C(N)C1` [Compound 48], the concentration giving a half-maximal response (EC50) under setting [1] is above 500 nM.

On to `CCCN(OCc1ccc(N)cc1)C(=O)C1=Cc2ccc(-c3cncc(Cl)c3)cc2N=C(N)C1` [Compound 49], for which the 50% effective concentration (EC50) (serial 3-fold dilutions) was 48.2 nM. The same measure, in the same setting: next, `CCCN(OCc1ccc(N)cc1)C(=O)C1=Cc2ccc(-c3cncc(C#N)c3)cc2N=C(N)C1` [Compound 50]: 41.5 nM. The same measure, in the same setting: next, `CCCN(OCc1ccc(N)cc1)C(=O)C1=Cc2ccc(-c3ccc(C#N)nc3)cc2N=C(N)C1` [Compound 51]: 142 nM; `CCCN(OCc1ccc(N)cc1)C(=O)C1=Cc2ccc(-c3cncc(N)c3)cc2N=C(N)C1` [Compound 52]: 6.58 nM.

As for `CCCN(OCc1ccc(N)cc1)C(=O)C1=Cc2ccc(-c3cncc(C(F)(F)F)c3)cc2N=C(N)C1` [Compound 53], the concentration for a half-maximal effect (EC50) under setting [1] was 50 to 500 nM.

For `CCCN(OCc1ccc(N)cc1)C(=O)C1=Cc2ccc(-c3cncc(CN)c3)cc2N=C(N)C1` [Compound 54], the half-maximal effective concentration (EC50) (serial 3-fold dilutions) amounted to 5.35 nM.

As to `CCCN(OCc1ccc(N)cc1)C(=O)C1=Cc2ccc(-c3ccc(N4CCOCC4)nc3)cc2N=C(N)C1` [Compound 55], for the setting “serial 3-fold dilutions”, the 50% effective concentration (EC50) came to 43.4 nM. The same measure, in the same setting: with `CCCN(OCc1ccc(N)cc1)C(=O)C1=Cc2ccc(-c3cncc(S(C)(=O)=O)c3)cc2N=C(N)C1` [Compound 56] the figure was 28.5 nM. In the case of `NC1=Nc2cc(-c3cncc(CO)c3)ccc2C=C(C(=O)N(CCC(F)(F)F)OCc2ccc(N)cc2)C1` [Compound 58], the concentration for a half-maximal effect (EC50) under setting [1] fell in the range of 10 to 50 nM. For the molecule `CCCN(OCc1ccc(N)cc1Cl)C(=O)C1=Cc2ncc(-c3cncc(CO)c3)cc2N=C(N)C1` [Compound 59], the EC50 under setting [1] lay within 50 to 500 nM. As to `CCCN(OCc1ccc(N)cc1OC)C(=O)C1=Cc2ncc(-c3cncc(CO)c3)cc2N=C(N)C1` [Compound 60], the EC50 under setting [1] is 50 to 500 nM. As to `CCCN(OCc1ccc(N)cc1)C(=O)C1=Cc2ncc(-c3cncc(CO)c3)cc2N=C(N)C1` [Compound 61], the EC50 under setting [1] fell in the range of 10 to 50 nM. The same measure, in the same setting: next, `CCCN(OCc1ccc(N)cc1)C(=O)C1=Cc2ccc(-c3cncc(CO)c3)nc2N=C(N)C1` [Compound 62]: at most 10 nM; `CCCN(OCc1ccc(N)cc1)C(=O)C1=Cc2ccc(-c3cnc4c(c3)C(=O)OC4)nc2N=C(N)C1` [Compound 63]: 10 to 50 nM; `CCCN(OCc1ccc(N)cc1)C(=O)C1=Cc2ccc(-c3cccc(S(=O)(=O)NCCO)c3)cc2N=C(N)C1` [Compound 64]: 10 to 50 nM.

In the case of `CCCN(OCc1ccc(N)cc1)C(=O)C1=Cc2ccc(-c3cccc(S(=O)(=O)N4CCC(O)CC4)c3)cc2N=C(N)C1` [Compound 66], under setting [1], the EC50 lay in the range of 50 to 500 nM. The same measure, in the same setting: next, `CCCN(OCc1ccc(N)cc1)C(=O)C1=Cc2ccc(-c3cccc(S(=O)(=O)N4CCNCC4)c3)cc2N=C(N)C1` [Compound 67]: above 500 nM; `CCCN(OCc1ccc(N)cc1)C(=O)C1=Cc2ccc(-c3cccc(S(=O)(=O)N4CCOCC4)c3)cc2N=C(N)C1` [Compound 68]: 10 to 50 nM; `CCCN(OCc1ccc(N)cc1)C(=O)C1=Cc2ccc(-c3cncc(S(=O)(=O)N4CCNCC4)c3)cc2N=C(N)C1` [Compound 69]: 50 to 500 nM. Regarding `CCCN(OCc1ccc(N)cc1)C(=O)C1=Cc2ccc(-c3cncc(S(=O)(=O)NCCO)c3)cc2N=C(N)C1` [Compound 70], the EC50 under setting [1] was 10 to 50 nM. On the same count and under the same terms, next, `CCCN(OCc1ccc(N)cc1)C(=O)C1=Cc2ccc(-c3cncc(S(=O)(=O)N4CCC(O)CC4)c3)cc2N=C(N)C1` [Compound 71]: 10 to 50 nM; `CCCN(OCc1ccc(N)cc1)C(=O)C1=Cc2ccc(-c3cncc(S(=O)(=O)N4CC[C@H](O)C4)c3)cc2N=C(N)C1` [Compound 72]: 10 to 50 nM; `CCCN(OCc1ccc(N)cc1)C(=O)C1=Cc2ccc(-c3cncc([S+](C)[O-])c3)cc2N=C(N)C1` (stereo not drawn) [Compound 73]: at most 10 nM. On the same count and under the same terms, next, `CCCN(OCc1ccc(N)cc1)C(=O)C1=Cc2ccc(C(=O)NC(C)(C)c3ccccc3)cc2N=C(N)C1` [Compound 76]: 10 to 50 nM. On the same count and under the same terms, with `CCCN(OCc1ccc(N)cc1)C(=O)C1=Cc2ccc(C(=O)N[C@@H](C)c3ccccc3)cc2N=C(N)C1` [Compound 77] the figure was 10 to 50 nM; with `CCCN(OCc1ccc(N)cc1)C(=O)C1=Cc2ccc(C(=O)N[C@H]3C[C@@H]3c3ccccc3)cc2N=C(N)C1` [Compound 78], at most 10 nM; with `CCCN(OCc1ccc(N)cc1)C(=O)C1=Cc2ccc(C(=O)NC3COC3)cc2N=C(N)C1` [Compound 81], 10 to 50 nM. Regarding `CCCN(OCc1ccc(N)cc1)C(=O)C1=Cc2ccc(C(=O)NC3CCCCC3)cc2N=C(N)C1` [Compound 82], the EC50 under setting [1] was 50 to 500 nM.

As to `CCCN(OCc1ccc(N)cc1)C(=O)C1=Cc2ccc(C(=O)NC3CCOCC3)cc2N=C(N)C1` [Compound 84], under setting [1], the EC50 was 50 to 500 nM. Still for that read-out and setting: with `CCCN(OCc1ccc(N)cc1)C(=O)C1=Cc2ccc(C(=O)Nc3cncc(OC)c3)cc2N=C(N)C1` [Compound 85] the figure was 50 to 500 nM; with `CCCN(OCc1ccc(N)cc1)C(=O)C1=Cc2ccc(C(=O)Nc3cccc(CN)c3)cc2N=C(N)C1` [Compound 86], 50 to 500 nM; with `CCCN(OCc1ccc(N)cc1)C(=O)C1=Cc2ccc(C(=O)Nc3ncco3)cc2N=C(N)C1` [Compound 87], 50 to 500 nM. `CCCN(OCc1ccc(N)cc1)C(=O)C1=Cc2ccc(C(=O)Nc3ccn(C)n3)cc2N=C(N)C1` [Compound 88]: the EC50 under setting [1] lay within 50 to 500 nM.

As for `CCCN(OCc1ccc(N)cc1)C(=O)C1=Cc2ccc(C(=O)Nc3ccc4cn[nH]c4c3)cc2N=C(N)C1` [Compound 89], the EC50 under setting [1] fell in the range of 50 to 500 nM. Still for that read-out and setting: with `CCCN(OCc1ccc(N)cc1)C(=O)C1=Cc2ccc(C(=O)Nc3ccc4c(c3)CNC4)cc2N=C(N)C1` [Compound 90] the figure was 50 to 500 nM; with `CCCN(OCc1ccc(N)cc1)C(=O)C1=Cc2ccc(C(=O)N3CCN(C)CC3)cc2N=C(N)C1` [Compound 93], 50 to 500 nM. The same measure, in the same setting: with `CCCN(OCc1ccc(N)cc1)C(=O)C1=Cc2ccc(C(=O)N3CC(Oc4ccccc4)C3)cc2N=C(N)C1` [Compound 94] the figure was 50 to 500 nM. For the molecule `CCCN(OCc1ccc(N)cc1)C(=O)C1=Cc2ccc(C(=O)N3CC4(COC4)C3)cc2N=C(N)C1` [Compound 95], the EC50 under setting [1] lay within 50 to 500 nM. Still for that read-out and setting: with `CCCN(OCc1ccc(N)cc1)C(=O)C1=Cc2ccc(C(=O)N3CCN(c4ccccc4)CC3)cc2N=C(N)C1` [Compound 97] the figure was above 500 nM.
